Measured values reported in patent US20100075960A1 (priority 2006, published 2010).

What follows are molecules tested on HCT116 (assay: Inhibition of cell proliferation, HCT116). Details: Homo sapiens, HCT-116; 72 h treatment; methylene blue or CellTiter-Glo.
Assay type: cell-based
Description: II. Inhibition of Cell Proliferation by PLK1 Inhibitors.
Exponentially growing cell lines of different tumor origins, cultured in appropriate media containing 10% fetal bovine serum at 37° C. in a 5% CO2 incubator were plated in 96 or 384-well plates. Twenty four hours post-plating, cells were treated with different concentrations of test compounds ranging from 20 μM to 0.04 nM. Several wells were left untreated as a control. Seventy two hours post-treatment, cell numbers were determined using different techniques; 100 μl per well of methylene blue (Sigma M9140) (0.5% in 50:50 Ethanol:water), or 10-100 μl per well of CellTiter-Glo (Promega #G7573), depending on well size. For methylene blue staining, stain was incubated at room temperature for 30 minutes before plates were rinsed and dye solubilized in 1% N-lauroyl sarcosine, sodium salt, (Sigma L5125, in PBS). Plates were read on a microplate reader, measuring the OD at 620 nm. For CellTiter-Glo, plates were incubated at room temperature for 15 minutes and the chemiluminescent signal was read on the Victor V or Envison 2100 reader.
Percent inhibition of cell growth was expressed as percent proliferation relative to 100% proliferation (control). Concentration of test compound that inhibited 50% of cell growth (IC50) was determined by 4 parameter fit of data using XLfit, (value of no cell control was substracted from all samples for background). The data are shown in Table 1 and Table 2 below and represent a compilation of several different experiments each performed using the general parameters outlined above, although minor variations may have been employed in some instances, in Table 1 and Table 2, +=IC50>1 μM; ++=IC50 0.5-1 μM: +++=IC50<0.5 μM.
Work on `C[C@@H](Oc1cc(-n2cnc3ccc(C#N)cc32)sc1C(N)=O)c1cccc(OC2CCNCC2)c1Cl` [Example 5, 3-{(1R)-1-[2-chloro-3-(piperidin-4-yloxy)phenyl]ethoxy}-5-(6-cyano-1H-benzimidazol-1-yl)thiophene-2-carboxamide] yielded an IC50 of less than 0.5 µM.
With `CC(Oc1cc(-n2cnc3cc(-c4cnn(C)c4)ccc32)sc1C(N)=O)c1cccc(OC2CCN(C)CC2)c1F` (racemic) [Example 76, (±)-3-[(1-{2-Fluoro-3-[(1-methyl-4-piperidinyl)oxy]phenyl}ethyl)oxy]-5-[5-(1-methyl-1H-pyrazol-4-yl)-1H-benzimidazol-1-yl]-2-thiophenecarboxamide] the IC50 was less than 0.5 µM.
For `C[C@@H](Oc1cc(-n2cnc3ccc(CS(C)(=O)=O)cc32)sc1C(N)=O)c1cccc(OC2CCN(C)CC2)c1Cl` [Example 55, 3-[((1R)-1-(2-chloro-3-[(1-methyl-4-piperidinyl)oxy]phenyl}ethyl)oxy]-5-(6-[(methylsulfonyl)methyl]1H-benzimidazol-1-yl}-2-thiophenecarboxamide], the IC50 was greater than 1 µM.
`C[C@@H](Oc1cc(-n2cnc3cc(-c4ccc(NC5CCN(C)CC5)nc4)ccc32)sc1C(N)=O)c1cccc(OC2CCN(C)CC2)c1Cl` [Example 18] gave an IC50 of less than 0.5 µM.
Work on `C[C@@H](Oc1cc(-n2cnc3ccccc32)sc1C(N)=O)c1cccc(OCCN2CCOCC2)c1Cl` [Example 15, 5-(1H-benzimidazol-1-yl)-3-{[(1R)-1-(2-chloro-3-{[2-(4-morpholinyl)ethyl]oxy}phenyl)ethyl]oxy)-2-thiophenecarboxamide] yielded an IC50 of less than 0.5 µM.
With `COc1cc2ncn(-c3cc(O[C@H](C)c4cccc(NCC5CCNCC5)c4Cl)c(C(N)=O)s3)c2cc1OC` [Example 1] the IC50 was 0.5 to 1 µM.
`C[C@@H](Oc1cc(-n2cnc3ccc(Cl)cc32)sc1C(N)=O)c1cccc(OC2CCNCC2)c1Cl` [Example 52, 5-(6-Chloro-1H-benzimidazol-1-yl)-3-({(1R)-1-[2-chloro-3-(4-piperidinyloxy)phenyl}ethyl)oxy)-2-thiophenecarboxamide] showed an IC50 of less than 0.5 µM.
`C[C@@H](Oc1cc(-n2cnc3cc(-c4cccnc4)ccc32)sc1C(N)=O)c1cccc(OC2CCNCC2)c1Cl` [Example 12, 3-({(1R)-1-[2-chloro-3-(4-piperidinyloxy)phenyl]ethyl}oxy)-5-[5-(3-pyridinyl)-1H-benzimidazol-1-yl]-2-thiophenecarboxamide] showed an IC50 of less than 0.5 µM.
Molecule `C[C@@H](Oc1cc(-n2cnc3ccccc32)sc1C(N)=O)c1cccc(OC2CCNCC2)c1Cl` [Example 14, 5-(1H-Benzimidazol-1-yl)-3-({(1R)-1-[2-chloro-3-(4-piperidinyloxy)phenyl]ethyl}oxy)-2-thiophenecarboxamide] has an IC50 of less than 0.5 µM.
Work on `CC(Oc1cc(-n2cnc3cc(-c4cnn(C)c4)ccc32)sc1C(N)=O)c1cccc(OC2CCNCC2)n1` (racemic) [Example 81, (±)-5-[5-(1-Methyl-1H-pyrazol-4-yl)-1H-benzimidazol-1-yl]-3-({1-[6-(4-piperidinyloxy)-2-pyridinyl]ethyl}oxy)-2-thiophenecarboxamide] yielded an IC50 greater than 1 µM.
For `Cc1cc(-c2ccc3c(c2)ncn3-c2cc(O[C@H](C)c3cccc(OC4CCN(C)CC4)c3Cl)c(C(N)=O)s2)ccn1` [Example 50, 3-[((1R)-1-{2-Chloro-3-[(1-methyl-4-piperidinyl)oxy]phenyl}ethyl)oxy]-5-[5-(2-methyl-4-pyridinyl)-1H-benzimidazol-1-yl]-2-thiophenecarboxamide], the IC50 was less than 0.5 µM.
With `C[C@@H](Oc1cc(-n2cnc3ccc(Br)cc32)sc1C(N)=O)c1cccc(OC2CCNCC2)c1Cl` [Example 7, 5-(6-Bromo-1H-benzimidazol-1-yl)-3-({(1R)-1-[2-chloro-3-(4-piperidinyloxy)phenyl]ethyl}oxy)-2-thiophenecarboxamide] the IC50 was less than 0.5 µM.
For `CC(Oc1cc(-n2cnc3cc(-c4cnn(C)c4)ccc32)sc1C(N)=O)c1ccnc(OC2CCN(C)CC2)n1` (racemic) [Example 78, (±)-3-[(1-(2-[(1-methyl-4-piperidinyl)oxy]-4-pyrimidinyl}ethyl)oxy]-5-[5-(1-methyl-1H-pyrazol-4-yl)-1H-benzimidazol-1-yl]-2-thiophenecarboxamide], the IC50 was greater than 1 µM.
With `C[C@@H](Oc1cc(-n2cnc3cc(Cl)ccc32)sc1C(N)=O)c1cccc(OC2CCN(CCN)CC2)c1Cl` [Example 22, 3-{[(1R)-1-(3-{[1-(2-aminoethyl)-4-piperidinyl]oxy}-2-chlorophenyl)ethyl]oxy}-5-(5-chloro-1H-benzimidazol-1-yl)-2-thiophenecarboxamide] the IC50 was less than 0.5 µM.
`Cc1ccc(-c2ccc3c(c2)ncn3-c2cc(O[C@H](C)c3cccc(OC4CCNCC4)c3Cl)c(C(N)=O)s2)cn1` [Example 9, 3-({(1R)-1-[2-chloro-3-(4-piperidinyloxy)phenyl]ethyl}oxy)-5-[5-(6-methyl-3-pyridinyl)-1H-benzimidazol-1-yl]-2-thiophenecarboxamide] showed an IC50 of less than 0.5 µM.
In the case of `COc1cc2ncn(-c3cc(O[C@H](C)c4cccc(OCC5CCN(C(=O)OC(C)(C)C)CC5)c4Cl)c(C(N)=O)s3)c2cc1OC` [Example 39, 1,1-Dimethylethyl 4-[({3-[(1R)-1-({2-(aminocarbonyl)-5-[5,6-bis(methyloxy)-1H-benzimidazol-1-yl]-3-thienyl}oxy)ethyl]-2-chlorophenyl}oxy)methyl]-1-piperidinecarboxylate], the IC50 is reported as 0.5 to 1 µM.
In the case of `C[C@@H](Oc1cc(-n2cnc3ccc(CS(C)(=O)=O)cc32)sc1C(N)=O)c1cccc(OCC2CCCN2C)c1Cl` (stereo partly shown) [Example 57], the IC50 is reported as greater than 1 µM.
`CC(C)N1CCC(Oc2cccc([C@@H](C)Oc3cc(-n4cnc5cc(Cl)ccc54)sc3C(N)=O)c2Cl)CC1` [Example 24, 5-(5-Chloro-1H-benzimidazol-1-yl)-3-{[(1R)-1-(2-chloro-3-{[1-(1-methylethyl)-4-piperidinyl]oxy}phenyl)ethyl]oxy}-2-thiophenecarboxamide] was tested, and the IC50 was less than 0.5 µM.
`C[C@@H](Oc1cc(-n2cnc3cc(-c4cnn(C)c4)ccc32)sc1C(N)=O)c1cccc(OC2CCN(CCF)CC2)c1Cl` [Example 29, 3-{[(1R)-1-(2-Chloro-3-{[1-(2-fluoroethyl)-4-piperidinyl]oxy}phenyl)ethyl]oxy}-5-[5-(1-methyl-1H-pyrazol-4-yl)-1H-benzimidazol-1-yl]-2-thiophenecarboxamide] was tested, and the IC50 was less than 0.5 µM.
Molecule `COc1cc2ncn(-c3cc(O[C@H](C)c4cccc(OCC5CCNCC5)c4Cl)c(C(N)=O)s3)c2cc1OC` [Example 40, 5-[5,6-Bis(methyloxy)-1H-benzimidazol-1-yl]-3-[((1R)-1-{2-chloro-3-[(4-piperidinylmethyl)oxy]phenyl}ethyl)oxy]-2-thiophenecarboxamide] has an IC50 of less than 0.5 µM.
`C[C@@H](Oc1cc(-n2cnc3cc(Cl)c(Cl)cc32)sc1C(N)=O)c1cccc(OC2CCN(C)CC2)c1Cl` [Example 72, 3-[((1R)-1-(2-chloro-3-[(1-methyl-4-piperidinyl)oxy]phenyl}ethyl)oxy]-5-(5,6-dichloro-1H-benzimidazol-1-yl)-2-thiophenecarboxamide] showed an IC50 of less than 0.5 µM.
In the case of `C[C@@H](Oc1cc(-n2cnc3ccc(Cl)cc32)sc1C(N)=O)c1cccc(OC2CCN(C)CC2)c1Cl` [Example 53, 5-(6-Chloro-1H-benzimidazol-1-yl)-3-[((1R)-1-(2-chloro-3-([1-methyl-4-piperidinyl)oxy]phenyl)}oxy]-2-thiophenecarboxamide], the IC50 is reported as less than 0.5 µM.
